Data from patent US7659312B2, “Inhibitors of Aquaporin 4, methods and uses thereof” (Niigata University, priority 2006, dated 2010).
Like-named read-outs stand apart in the source and are kept apart here.

Experiments:
[1] = molecular target: T1, human aquaporin-4 M23 isoform (hAQP4b) (Homo sapiens, UniProt P55087); experiment: Inhibition of AQP4 mediated hypoosmotic swelling of Xenopus laevis oocytes expressing hAQP4b; assay type: cell-based; conditions: for inhibition at 20 µM / % Inh (percent inhibition and cumulated error): Table 3, [X]=20 μM, P<0.05; for inhibition at 20 µM: read-out: % Inh (percent inhibition and cumulated error)
T1 construct: Full-length cRNA was subcloned into pSP35T expression vector for Xenopus oocytes; expressed in transfected cells; host or cells: Xenopus laevis oocytes injected with hAQP4b cRNA (pSP35T vector)
T1 sequence (P55087 23-323): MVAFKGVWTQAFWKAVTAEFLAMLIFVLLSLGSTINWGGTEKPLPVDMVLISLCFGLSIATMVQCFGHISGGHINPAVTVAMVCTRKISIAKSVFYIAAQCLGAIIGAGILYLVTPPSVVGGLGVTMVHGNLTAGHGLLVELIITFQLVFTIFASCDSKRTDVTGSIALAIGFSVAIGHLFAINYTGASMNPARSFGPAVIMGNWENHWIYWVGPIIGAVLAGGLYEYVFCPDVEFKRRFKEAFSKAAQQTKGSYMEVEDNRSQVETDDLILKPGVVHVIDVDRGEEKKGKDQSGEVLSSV
Method: Compounds studied in vitro were purchased from Sigma-Aldrich, Tokyo Kasei, Wako or Scientific Exchange, and were used without further purification. […] Compound samples were freshly dissolved into DMSO (Sigma, Hibri-Max) and diluted into RO deionized water (Milipore, Ultra-Q) prior to use. Other reagents were purchased from Sigma and Wako and were used without modification. Modified Barth's Medium (MBS) and isolation buffer were prepared using autoclaved, doubly distilled water. MBS was used for up to one week after its preparation. […] Isolation buffer was prepared to contain NaCl (108 mM), KCl (2 mM), EDTA, (2 mM), HEPES (10 mM), and was at pH=7.5.
cDNA encoding human aquaporin-4 M23 isoform (hAQP4b) was cloned by reverse-transcription polymerase chain reaction (RT-PCR). First-strand cDNA was synthesized from human cerebellum total RNA by using the Advantage RT-for-PCR Kit (CLONTECH). The following oligonucleotide PCR primers were designed based on published hAQP4b sequences (Lu, et al. Proc. Nat. Acad. Sci. USA 1996, 93, 10908): forward 5′-[…]-3′, reverse 5′-[…]-3′. Full-length cRNA was subcloned into pSP35T expression vector for Xenopus oocytes (Amaya, et al. Cell 1991, 66, 257).
Oocytes from an adult, female Xenopus laevis were transferred portion-wise to a Petri dish containing isolation buffer, where the follicular membranes and vitelline were removed manually, thereby yielding denuded oocytes (Sakimura, et al. FEBS Lett. 1990, 272, 73). Denuded stage V-VI oocytes were then returned to fresh MBS medium and allowed to equ ilibrate for a minimum of 2 h at 18° C. prior to cRNA injection. Denuded oocytes unused after 24 h were discarded. An aliquot of hAQP4b cRNA solution (20 μL) was pelleted by centrifugation (15,000 rpm, 14 min, 4° C.), the pellet was washed sequentially with 70% aqueous ethanol, then 100% ethanol (centrifugation between washes at 15,000 rpm, 3 min, 4° C.), air dried, and finally reconstituted in distilled water (10 μL). An aliquot (30 nL) of either the resulting 0.1 μg/μL cRNA solution (3 ng hAQP4b cRNA/oocyte) or distilled water (sham) was injected into each oocyte using a Drummond oocyte injection system. The injected oocytes were then incubated for 48 h at 18° C. in MBS. The medium was changed and non-viable oocytes removed 24 and 48 h post injection.
An oocyte assay procedure was developed as follows: At a minimum of 3 h prior to the assay, oocytes were transferred to a 96 well microplate (Falcon 353077) along with 45 μL of MBS. An aliquot of a 200 μM inhibitor solution (5 μL, 1% aq. DMSO), or blank (5 μL, 1% aq. DMSO) was introduced to the oocyte containing well 2 h before the assay. The final concentration of the incubation medium was 20 μM in inhibitor with 0.1% DMSO. A secondary plate was likewise prepared by diluting an aliquot of the 200 μM inhibitor solution (15 μL, 1% aq. DMSO) or blank (15 μL, 1% aq. DMSO) with distilled water (135 μL). The assay was performed by transferring an aliquot of the secondary plate medium (100 μL) to the corresponding well on the incubation plate. […] The initial image (nominally t=3 s) and subsequent images (60 s intervals) were recorded for up to 4 minutes post dilution.
Images were transferred to a PC and the area of each oocyte was evaluated using NIH Image-J. The cross-sectional area values for each oocyte at time=t were converted to volumes assuming a spherical relationship. The relative volume of each oocyte compared to its initial volume was then determined. Relative oocyte volumes were then averaged for n oocytes along with the standard error at each point.

[2] = molecular target: T1, human aquaporin-4 M23 isoform (hAQP4b); experiment: as above; assay type: cell-based; parameters: IAmax: unit not given here; conditions: for IAmax: value in parentheses after IC50, 0.01≦[X]≦100 μM
HEK293 cells = conditions: literature report, isozyme not demonstrated; cited from earlier work
AQP1 = molecular target: T2, AQP1 (Homo sapiens, UniProt P29972); conditions: literature report; cited from earlier work
T2 sequence (P29972 1-269): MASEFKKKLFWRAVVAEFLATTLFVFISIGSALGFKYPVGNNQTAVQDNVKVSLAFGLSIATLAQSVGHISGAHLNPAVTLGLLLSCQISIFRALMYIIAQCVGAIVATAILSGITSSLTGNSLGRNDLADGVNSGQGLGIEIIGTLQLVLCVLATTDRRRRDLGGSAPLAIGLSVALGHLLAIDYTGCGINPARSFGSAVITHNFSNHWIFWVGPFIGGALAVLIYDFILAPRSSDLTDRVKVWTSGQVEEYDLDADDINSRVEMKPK

AQP4 = AQP4 (Homo sapiens, UniProt P55087); conditions: literature report; cited from earlier work
Sequence of AQP4 (P55087 whole entry): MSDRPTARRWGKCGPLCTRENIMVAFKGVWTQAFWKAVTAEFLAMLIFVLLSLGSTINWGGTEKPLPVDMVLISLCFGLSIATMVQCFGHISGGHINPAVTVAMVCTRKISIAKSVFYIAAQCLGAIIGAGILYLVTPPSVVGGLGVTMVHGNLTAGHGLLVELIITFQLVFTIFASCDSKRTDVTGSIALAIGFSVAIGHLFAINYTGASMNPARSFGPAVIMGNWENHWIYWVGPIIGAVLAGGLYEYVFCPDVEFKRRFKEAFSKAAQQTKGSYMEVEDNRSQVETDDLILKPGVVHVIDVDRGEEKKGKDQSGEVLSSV

[3] = Table 3, from inhibitory data at 0.01≦[X]≦100 μM, read-out: IC50
[4] = figure legends FIGS. 8-12, non-linear least squares fit of dose dependent inhibition, read-out: IC50

Row | Compound | inhibition at 20 µM [1] | IAmax ([2]; Table 3) | also measured
1 | CC(=O)Nc1nnc(S(N)(=O)=O)s1 [Compound 1, N-(5-sulfamoyl-1,3,4-thiadiazol-2-yl)acetamide] | 78 ± 3% | 86 | dose response dependent inhibition of AQP4 mediated water transport ([2]; FIG. 7, 0.01, 0.1, 1.0 and 10 μM solutions, n=5): significant inhibition; IC50 ([2]; Table 3, from inhibitory data at 0.01≦[X]≦100 μM): 0.86 µM
2 | CC(=O)Nc1ccc(S(N)(=O)=O)cc1 [Compound 3, N-(4-sulfamoylphenyl)acetamide] | 23 ± 5% |  | 
3 | O=C1NC(=O)C(c2ccccc2)(c2ccccc2)N1 [Compound 4, 5,5-diphenylimidazolidine-2,4-dione] | 58 ± 4% | 60 | IC50 [2, 3]: 9.8 µM
4 | NC(=O)N1c2ccccc2CC(=O)c2ccccc21 [Compound 5, 10-oxo-10,11-dihydro-5H-dibenzo [b,f]azepine-5-carboxamide] | 33 ± 4% |  | 
5 | NC(=O)N1c2ccccc2[C@H]2O[C@H]2c2ccccc21 [Compound 6, (1aR, 10bS)-1aH-dibenzo[b,f] oxireno[2,3-d]azepine-6(10bH)-carboxamide] | 40 ± 7% |  | inhibition of AQP4 mediated water swelling / water transport ([1]; FIGS. 1-6, 20 μM inhibitor, hypoosmotic conditions, versus sham and blank oocytes, n=5 minimum): did not show a significantly inhibited water transport
6 | Nc1nnc(-c2cccc(Cl)c2Cl)c(N)n1 [Compound 7, 6-(2,3-dichlorophenyl)-1,2,4-triazine-3,5-diamine] | 54 ± 9% | 64 | IC50 [2, 3]: 8.1 µM
7 | CC1(C)O[C@@H]2[C@@H](CO[C@@]3(COS(N)(=O)=O)OC(C)(C)O[C@@H]23)O1 [Compound 8, ((3aS,5aR,8aR,8bS)-2,2,7,7-tetra-methyltetrahydro-3aH-bis[1,3]dioxolo[4,5-b:4′,5′-d]pyran-3a-yl) methyl sulfamate] |  | 75 | % Inh (percent inhibition and cumulated error) [1]: 67 ± 6%; IC50 [2, 3]: 10.1 µM
8 | NS(=O)(=O)Cc1noc2ccccc12 [Compound 9, benzo[d]isoxazol-3-ylmethane sulfonamide] | 19 ± 5% |  | 
9 | O=C(Nc1nncs1)c1cccnc1 [Compound 10, N-(1,3,4-thiadiazol-2-yl) nicotinamide] | 67 ± 6% | 73 | IC50 [2, 3]: 3.1 µM
10 | O=C(Nc1nccs1)c1cccnc1 [Compound 11, N-(thiazol-2-yl)nicotinamide] | 21 ± 7% | 23 | IC50 [2, 3]: 3.4 µM
11 | O=S(=O)(Cc1ccccc1)Nc1nncs1 [Compound 12, 1-phenyl-N-(1,3,4-thiadiazol-2-yl) methanesulfonamide] |  |  | % Inh (percent inhibition and cumulated error) [1]: 45 ± 8%
12 | COC(=O)Nc1nc2ccc(C(=O)c3cccs3)cc2[nH]1 [Nocodazole] |  |  | inhibition of AQP4 mediated hypoosmotic expansion (HEK293 cells): inhibiting the AQP4 mediated hypoosmotic expansion of HEK293 cells
13 | CC(=O)Nc1nnc(S(N)(=O)=O)s1 [Table 3 entry 1, N-(5-sulfamoyl-1,3,4-thiadiazol-2-yl)acetamide] |  |  | IC50 [1]: 0.86 µM
14 | O=C1NC(=O)C(c2ccccc2)(c2ccccc2)N1 [Table 3 entry 4, 5,5-diphenylimidazolidine-2,4-dione] |  |  | IC50 [2, 4]: 9.8 µM
15 | CC1(C)O[C@@H]2[C@@H](CO[C@@]3(COS(N)(=O)=O)OC(C)(C)O[C@@H]23)O1 [Table 3 entry 8, ((3aS,5aR,8aR,8bS)-2,2,7,7-tetra-methyltetrahydro-3aH-bis[1,3]dioxolo[4,5-b:4′,5′-d]pyran-3a-yl) methyl sulfamate] |  |  | IC50 [2, 4]: 10.1 µM
16 | O=C(Nc1nncs1)c1cccnc1 [Table 3 entry 10, N-(1,3,4-thiadiazol-2-yl) nicotinamide] |  |  | IC50 [2, 4]: 3.1 µM
17 | CN(C)CCc1c[nH]c2ccc(Cn3cncn3)cc12 [Table 3 entry 15, 2-(5-((1H-1,2,4-triazol-1-yl)methyl)-1H-indol-3-yl)-N,N-dimethylethanamine] |  |  | IC50 [2, 4]: 2.9 µM
18 | CC(=O)Nc1nnc(S(N)(=O)=O)s1 [acetazolamide] |  |  | inhibition of AQP1 (AQP1): inhibited in a dose dependent manner
19 | CC[N+](CC)(CC)CC.[Cl-] [tetraethyl ammonium chloride] |  |  | inhibition of AQP4 (AQP4): shown to inhibit AQP4

More lines, main results first:

Row | inhibition at 20 µM [1] | IAmax ([2]; Table 3) | Compound | also measured
20 | 18 ± 9% |  | NS(=O)(=O)c1ccc(Cl)s1 [Compound 13, 2-chlorothiophene-5-sulfonamide] | 
21 | 23 ± 8% |  | NC(=O)c1nc[nH]c1C(N)=O [Compound 14, 1H-imidazole-4,5-dicarboxamide] | 
22 | 51 ± 5% | 54 | CN(C)CCc1c[nH]c2ccc(Cn3cncn3)cc12 [Compound 15, 2-(5-((1H-1,2,4-triazol-1-yl)methyl)-1H-indol-3-yl)-N,N-dimethylethanamine] | IC50 [2, 3]: 2.9 µM
